Test system: cilia (ACIII) in Tsc2-sh hippocampal neurons
Test: cilia^HCA (GFP+ ACIII+ neurons) in Tsc2-sh neurons
Type: cell-based, rat
Details: for ciliation, acute effect: 24 hrs at DIV20, concentrations that inhibited mTORC1 (8.5 μM 17-AGG, 9 μM GA, 5.5 μM rapamycin); for rescue of cilia at later ages in culture: four-day treatment between DIV16-20, endpoint DIV20
From the text: To investigate how mTORC1 dysregulation due to neuronal TSC loss affected ciliation, High Content image-based Assays (HCAs) were developed for unbiased quantification of cilia and mTORC1 activity (hereafter cilia^HCA and mTORC1^HCA) in primary neurons. As an in vitro model of TSC, rat hippocampal neurons transduced with lentiviral vectors (LV) expressing a short hairpin RNA (shRNA) were used directed against either the Tsc2 (Tsc2-sh) or the luciferase gene as a control (ctrl-sh) tagged with GFP. LV-mediated Tsc2 knockdown recapitulates several in vivo manifestations observed in mouse models of TSC (Di Nardo et al., Tuberous sclerosis complex activity is required to control neuronal stress responses in an mTOR-dependent manner; J Neurosci 29, 5926-5937 (2009); Di Nardo et al., Neuronal Tsc1/2 complex controls autophagy through AMPK-dependent regulation of ULK1; Hum Mol Genet 23, 3865-3874 (2014); Ebrahimi-Fakhari et al., Impaired Mitochondrial Dynamics and Mitophagy in Neuronal Models of Tuberous Sclerosis Complex; Cell Rep 17, 1053-1070 (2016); Ercan et al., Neuronal CTGF/CCN2 negatively regulates myelination in a mouse model of tuberous sclerosis complex; The Journal of experimental medicine 214, 681-697 (2017); Nie et al., The Stress-Induced Atf3-Gelsolin Cascade Underlies Dendritic Spine Deficits in Neuronal Models of Tuberous Sclerosis Complex; J Neurosci 35, 10762-10772 (2015); Nie et al., Tsc2-Rheb signaling regulates EphA-mediated axon guidance. Nat Neurosci 13, 163-172 (2010)). In vitro phenotypes include robust TSC2 protein downregulation and mTORC1 activation as shown by the time course of increased phosphorylation of ribosomal protein S6 at serine 240/244 (pS6) (FIGS. 8A-B). Both the cilia^HCA and mTORC1^HCA were optimized as imaged-based assays, where cilia and mTORC1 activity was monitored by immunofluorescent staining of ACIII to identify cilia and pS6 as a proxy of mTORC1 activation (FIGS. 8C-F). Neurons were transduced in culture at day in vitro (DIV) 1, and cilia and mTORC1 activity were assessed in a time course experiment at DIV2, 5, 7, 13, and 20 (FIG. 2A). LV-infected neurons with cilia or with phosphorylated S6 (GFP^+ ACIII^+ and GFP^+pS6^+ respectively) were identified by automated algorithms to detect subcellular structures and their co-localization specifically optimized for each assay. In control neurons, cilia development was observed between DIV2-5, which remained stable between DIV7 and DIV20 (FIGS. 2B, D). […] Reduced ciliation was validated by manual imaging and quantification of LV-infected neurons co-labeled with ACIII/centrin (FIGS. 8G-H). No changes in size or ACIII intensity were detected in the remaining cilia of the Tsc2-sh neurons (FIGS. 8I-J).
Rat hippocampal neurons were plated at a density of 20,000/well in 96-well plates (Greiner #655090) coated with Poly-D-Lysine (PDL) at 20 μg/ml. Neurons were transduced with lentivirus and processed for immunofluorescent staining at endpoint assay by fixation with 4% PFA followed by permeabilization in ice cold 100% Methanol. Neurons were then washed 3 times in PBS/0.05% Tween (PBT) containing 50 mM glycine and blocked in 2% bovine serum albumin (Sigma) in PBT (PBT/Block) at RT. For consistent and robust identification of the LV-infected neurons, cultures of both the cilia^HCA and mTORC1^HCA were stained with GFP antibody and co-labeled with ACIII or pS6 for the identification of respectively cilia and mTORC1 activity. Primary antibodies were incubated in PBT/Block overnight. The following day, neurons were washed in PBT and incubated with secondary antibodies followed by Hoechst staining. After washing with PBT, neurons were kept in PBS buffer. Aside from primary and secondary antibody administration, all the washing for immunofluorescent staining was done using the Agilent bravo automated liquid handler. […]

[1] = four days (DIV9-13), any dose tested

SMILES | ciliation, acute effect | rescue of cilia at later ages in culture | ciliation [1] | further results
CO[C@H]1C[C@@H]2CC[C@@H](C)[C@@](O)(O2)C(=O)C(=O)N2CCCC[C@H]2C(=O)O[C@H]([C@H](C)C[C@@H]2CC[C@@H](O)[C@H](OC)C2)CC(=O)[C@H](C)/C=C(\C)[C@@H](O)[C@@H](OC)C(=O)[C@H](C)C[C@H](C)/C=C/C=C/C=C/1C [rapamycin] | Neither of the Hsp90 inhibitors nor rapamycin rescued ciliation | Neither rapamycin nor a four-day 17-AGG treatment regimen was able to rescue the cilia | – | ciliation (rapamycin 20 nM acute (1 day) treatment): no effect; ciliation (rapamycin 20 nM for eight days between DIV5-13): significant increase; ciliation (rapamycin 20 nM for four days between DIV9-13): significant increase; ciliation (rapamycin 20 nM, later ages (DIV20) in culture): no effect
C=CCNC1=C2C[C@@H](C)C[C@H](OC)[C@H](O)[C@@H](C)/C=C(\C)[C@H](OC(N)=O)[C@@H](OC)C=C/C=C(\C)C(=O)NC(=CC1=O)C2=O [17-AGG, 3 S,5S,6R,7S,8E,10R,11S,12E,14E)-21-(allylamino)-6-hydroxy-5,11-dimethoxy-3,7,9,15-tetramethyl-16,20,22-trioxo-17-azabicyclo[16.3.1]docosa-8,12,14,18,21-pentaen-10-yl] carbamate] | Neither of the Hsp90 inhibitors nor rapamycin rescued ciliation | Neither rapamycin nor a four-day 17-AGG treatment regimen was able to rescue the cilia | – | EC50 (Rattus norvegicus, Hippocampal neuron, treatment between DIV9-13, read-out: EC50^cilia (cilia rescue)): 15 nM
COc1cccc(-c2cc(F)ccc2[C@H]2Cc3nc(N)nc(C)c3C(=O)N2)n1 [NPV-HSP-990, (R)-2-amino-7-((R)-4-fluoro-2-(6-methoxypyridin-2-yl)phenyl)-4-methyl-7,8-dihydropyrido[4,3-d]pyrimidin-5(6H)-one] | – | – | not observed | –
CN(C)c1cc2c(cc1Sc1nc3c(N)nccc3n1CCNCC(C)(C)C)OCO2 [CUDC-305, 4-amino-2-[[6-(dimethylamino)-1,3-benzodioxol-5-yl]thio]-N-(2,2-dimethylpropyl)-1H-imidazo[4,5-c]pyridine-1-ethanamine] | – | – | No increase | –
